# Tests used:
# [1] = target: T1, Flt3 (h) (Homo sapiens, UniProt P36888); assay: FLT3 in vitro peptide-based kinase assay, Protocol 1; format: biochemical
# T1 sequence (P36888 27-993): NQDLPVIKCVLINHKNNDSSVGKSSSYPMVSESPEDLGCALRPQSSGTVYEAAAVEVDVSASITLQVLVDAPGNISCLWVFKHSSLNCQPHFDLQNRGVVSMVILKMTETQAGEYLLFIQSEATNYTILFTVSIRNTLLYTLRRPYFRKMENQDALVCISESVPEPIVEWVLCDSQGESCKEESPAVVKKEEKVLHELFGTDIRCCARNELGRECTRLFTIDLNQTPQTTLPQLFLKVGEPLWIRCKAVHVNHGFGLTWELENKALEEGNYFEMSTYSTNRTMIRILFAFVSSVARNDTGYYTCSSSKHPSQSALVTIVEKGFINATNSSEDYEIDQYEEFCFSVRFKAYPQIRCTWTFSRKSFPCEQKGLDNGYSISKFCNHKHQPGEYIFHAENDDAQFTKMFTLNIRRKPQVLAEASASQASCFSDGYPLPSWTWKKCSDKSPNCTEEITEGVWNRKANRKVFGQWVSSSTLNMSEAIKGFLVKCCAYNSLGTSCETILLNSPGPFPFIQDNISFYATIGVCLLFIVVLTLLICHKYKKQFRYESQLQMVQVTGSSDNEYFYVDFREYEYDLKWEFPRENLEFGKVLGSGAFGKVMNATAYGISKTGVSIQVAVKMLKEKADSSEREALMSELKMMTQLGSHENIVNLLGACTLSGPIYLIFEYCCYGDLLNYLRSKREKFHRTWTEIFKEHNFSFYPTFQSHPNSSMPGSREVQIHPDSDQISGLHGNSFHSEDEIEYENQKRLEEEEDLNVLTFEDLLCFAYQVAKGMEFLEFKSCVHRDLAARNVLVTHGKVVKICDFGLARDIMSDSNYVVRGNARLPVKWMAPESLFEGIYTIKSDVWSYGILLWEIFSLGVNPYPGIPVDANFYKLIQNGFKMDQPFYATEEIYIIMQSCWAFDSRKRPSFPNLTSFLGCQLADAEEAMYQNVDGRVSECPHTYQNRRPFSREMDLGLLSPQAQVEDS
# Procedure: The inhibition of FLT3 kinase was assessed using FLT3 recombinant protein in an in vitro peptide-based kinase assay.
# In a final reaction volume of 25 μL, Flt3 (h) (5-10 mU) is incubated with 8 mM MOPS pH 7.0, 0.2 mM EDTA, 50 μM EAIYAAPFAKKK, 10 mM MgAcetate and [g-33P-ATP] (specific activity approx. 500 cpm/pmol, concentration as required). The reaction is initiated by the addition of the MgATP mix. After incubation for 40 minutes at room temperature, the reaction is stopped by the addition of 5 μL of a 3% phosphoric acid solution. 10 μL of the reaction is then spotted onto a P30 filtermat and washed three times for 5 minutes in 75 mM phosphoric acid and once in methanol prior to drying and scintillation counting.
# [2] = target: T2, FLT3 wt (Homo sapiens, UniProt P36888); assay: radiometric protein kinase assay (33PanQinase Activity Assay) FLT3 wt, Protocol 2; format: biochemical; settings: ATP 3 μM
# T2 construct: purchased Invitrogen Corporation
# T2 sequence (P36888 27-993): T1 sequence (P36888 27-993)
# Procedure: A radiometric protein kinase assay (33PanQinase® Activity Assay) was used for measuring the kinase activity. All kinase assays were performed in 96-well FlashPlates™ from PerkinElmer (Boston, Mass., USA) in a 50 μl reaction volume. The reaction cocktail was pipetted in four steps in the following order: • 20 μl of assay buffer (standard buffer) • 5 μl of ATP solution (in H2O) • 5 μl of test compound (in 10% DMSO) • 10 μl of substrate/10 μl of enzyme solution (premixed)
# The assay for FLT3 wt contains 70 mM HEPES-NaOH pH 7.5, 3 mM MgCl2, 3 mM MnCl2, 3 μM Na-orthovanadate, 1.2 mM DTT, ATP (3 μM), [γ-33P]-ATP (approx. 5×1005 cpm per well), protein kinase FLT3 wt (6.1 nM) and substrate (poly(Ala,Glu,Lys,Tyr)6:2:5:1), 0.125 μg/50 μl).
# The kinases are obtained from Invitrogen Corporation.
# The reaction cocktails were incubated at 30° C. for 60 minutes. The reaction was stopped with 50 μl of 2% (v/v) H3PO4, plates were aspirated and washed two times with 200 μl 0.9% (w/v) NaCl. Incorporation of 33Pi was determined with a microplate scintillation counter.
melting point [°C],IC50 [1] [nM],IC50 [2] [nM],SMILES
> 300,< 100,–,c1cc2cc(c1)-c1cnn3ccc(nc13)NCCN(CCN1CCOCC1)CCO2 [Compound 5]
–,< 100,–,O=C(NCCCN1CCCC1)N1CCNCCOc2cccc(c2)-c2cnn3ccc1nc23 [Compound 10]
> 300,< 100,–,O=C(O)c1ccc2cc1OCCOCCNc1ccn3ncc-2c3n1 [Compound 1]
> 300,> 1000,–,c1cc2cc(c1)-c1cnn3ccc(nc13)OCCN(CCCN1CCCC1)CCO2 [Compound 13]
–,–,100 to 1000,c1cc2cc(c1)-c1cnn3ccc(nc13)NCCCNCCO2 [Compound 33]
283.9,< 100,–,O=C1NCCN(CCO)CCNc2ccn3ncc(c3n2)-c2cccc1c2 [Compound 8]
–,–,> 1000,O=C1CNCCNc2ccn3ncc(c3n2)-c2cccc(c2)N1 [Compound 31]
287.6,100 to 1000,–,CN1CCNC(=O)c2cccc(c2)-c2cnn3ccc(nc23)NCC1 [Compound 9]
> 300,< 100,–,OCc1ccc2cc1OCCOCCNc1ccn3ncc-2c3n1 [Compound 12]
–,–,> 1000,O=C1CNCCNc2ccn3ncc(c3n2)-c2cccc(c2)CN1 [Compound 34]
234.9,–,–,Fc1cc2cc(c1)-c1cnn3ccc(nc13)NCCOCCCO2 [Compound 35]
> 300,< 100,–,NC(=O)c1ccc2cc1OCCNCCNc1ccn3ncc-2c3n1 [Compound 4]
> 300,> 1000,–,CN1CCC(C(=O)N2CCOCCNc3ccn4ncc(c4n3)-c3cccc2c3)CC1 [Compound 2]
> 300,< 100,–,CC(C)N1CCNc2ccn3ncc(c3n2)-c2cccc(c2)OCC1 [Compound 6]
> 300,100 to 1000,–,CN(C)CCNC(=O)N1CCNCCOc2cccc(c2)-c2cnn3ccc1nc23 [Compound 11]
–,> 1000,–,O=C1NCCNCCN(CCO)c2ccn3ncc(c3n2)-c2cccc1c2 [Compound 14]
–,–,100 to 1000,COc1ccc2cc1OCCNCCNc1ccn3ncc-2c3n1 [Compound 32]
271.6,100 to 1000,–,O=C1c2cccc(c2)-c2cnn3ccc(nc23)NCCNCCN1CCO [Compound 7]
–,100 to 1000,–,O=C1NCCN(C2CC2)CCN(CCO)c2ccn3ncc(c3n2)-c2cccc1c2 [Compound 15]
> 300,< 100,–,O=C1NCCCNc2ccn3ncc(c3n2)-c2cccc(c2)N1 [Compound 3]
> 300,–,–,O=C(NCCF)c1ccc2cc1OCCOCCNc1ccn3ncc-2c3n1 [Compound 20]

# Reference: patent US9370519B2, “Macrocyclic FLT3 kinase inhibitors” (Oncodesign S.A., priority 2011, dated 2016)
